Assay results: publication PMC11199504, “New hemisynthetic derivatives of sphaeropsidin phytotoxins triggering severe endoplasmic reticulum swelling in cancer cells” (Scientific Reports, 2024)

Legend:
NKCC = details: cited from earlier work
[1] = parameters: method as in PMID 33016969; details: cited from earlier work
caspase-3 = assay: Caspase multiplex assay, caspase-3 in SKMEL-28; format: cell-based, human; details: SKMEL-28 cells, 15 h of treatment
Description: (§1) Cell death induced by compounds 1 and 13 was evaluated by means of the double annexin-V/propidium iodide staining by flow cytometry with the FITC Annexin V apoptosis detection kit from BD Pharmingen (USA) according to the manufacturer’s instructions. Briefly, cells were cultured and treated in 25 cm^2 flasks. At the end of the treatment, all cells (adherent and floating cells) were collected, washed and resuspended at 10^6 cells/mL. 100 µL of the cell suspension were stained with 5 µL of FITC-annexin-V and 5 µL of propidium iodide for 15 min at rt in the dark. 400 µL of buffer were then added before data acquisition of 10,000 events per sample (Gallios, Beckman Coulter, Belgium). Caspase activation is usually evaluated to confirm or not the apoptotic feature of the cell death induced. For this purpose, we used the caspase-3, -8 and 9 multiplex assay (Ab219915, Abcam, UK) following manufacters’ instructions. In this assay, cells were exposed to short peptidic sequences linked to different fluorochromes and that could be specifically cleaved by each of these caspases. This assay thereby allowed simultaneous evaluation of the three caspase activities thanks to the quantification of the three fluorophores released in a SynergyMX plate fluorimeter (Biotek, USA).

caspase-3, -8 and 9 = assay: Caspase-3, -8 and -9 multiplex assay in U373; format: cell-based, human; details: U373 cells, until 24 h of treatment
Description: as §1

SKMEL-28 and U373 cells = assay: Reversibility assay; format: cell-based, human; details: after 6 h of treatment, both cell lines
Description: The reversibility of the effects induced by compounds 13 was evaluated through qualitative microscopic observation of the cell cultures (morphology and confluence of the cell culture) over time after having been exposed or not to the compound for 1, 3 or 6 h. Negative control corresponds to untreated cells while positive control corresponds to cells treated with 13 continuously over the whole experiment. Briefly, 6 × 10^4 cells per well were seeded in 6 well plates and incubated for 24 h before their use. Culture medium was then replaced by fresh medium with or without compound 13. After 1, 3 or 6 h of treatment, cells were washed and the culture medium was renewed. Pictures were taken at different time points starting at t = 0 when the treatment was applied to the cells, 6 h, 24 h and 72 h thereafter.

caspase-8 = assay: Caspase multiplex assay, caspase-8 in SKMEL-28; format: cell-based, human; details: SKMEL-28 cells, 15 h of treatment
Description: as §1

[2] = system: 60 cancer cell line panel; assay: NCI 60 cancer cell line panel testing; format: cell-based
Excerpt: Cell lines are grouped by cancer type [origin]. Determination of the concentration that reduced by 50 % the
Log10 differences are represented by the bars. If a cell line is more sensitive , the bar is on the right , if it is less
sensitive, the bar is on the left. Similar data are represen ted for the 50 % lethal concentration [LC 50] of each
(1 picture or pasted object on this page, not shown here)

U373 cells = assay: Annexin-V/propidium iodide staining by flow cytometry; format: cell-based, human; details: 24 h of treatment
Description: as §1

Row | SMILES | concentration inhibiting NKCC activity (NKCC) | stability in physiological medium [1] | caspase-3 activity (caspase-3) | caspase activation (caspase-3, -8 and 9) | reversibility of effects (SKMEL-28 and U373 cells) | caspase-8 activity (caspase-8) | CC50 ([2]; NCI 60 cancer cell line panel, read-out: global mean LC50) [nM] | GI50 ([2]; NCI, 48 h of culture, read-out: mean GI50 against the 60 cancer cell line panel) [nM] | cells positive to annexin-V (U373 cells)
1 | C=C[C@]1(C)C=C2C(=O)[C@@]3(O)OC(=O)[C@@]4(CCCC(C)(C)[C@H]34)[C@@]2(O)CC1 [Compound 1, sphaeropsidin A, reference compound] | low micromolar | instability |  |  |  |  |  |  | 
2 | CC1(C=CCCCc2ccc3ccc4cccc5ccc2c3c45)C=C2C(=O)C3(O)OC(=O)C4(CCCC(C)(C)C34)C2(O)CC1 (stereo not drawn) [Compound 13] |  |  | markedly increased | no caspase activation could be detected | irreversible | markedly increased | 1500 | 190 | more than 60%
